Test results published in US20250353873A1, “COMPOUNDS AND METHODS FOR MODULATING APOE EXPRESSION” (Ionis Pharmaceuticals, Inc., priority 2024, published 2025).
Marks after values point to notes of the source that are not given here. Strand notation (5' to 3'): a small letter for the sugar, then the base; units joined by * are phosphorothioate-linked, units joined directly phosphodiester-linked; [ ] holds rarer units or linkages, { } end groups; capitals alone tell only the bases. [ms] = mesyl phosphoramidate linkage; e = 2'-O-(2-methoxyethyl) (MOE); k = constrained ethyl (cEt); [5mC] = 5-methylcytosine; d = 2'-deoxy (DNA)

Assays:
human APOE RNA [1] = test: Dose-dependent reduction of human APOE RNA in HepG2 cells, electroporation, 20,000 cells per well, normalized to PPIA (Example 4, Table 11); assay type: cell-based; settings: HepG2 cells, 20,000 cells per well, approximately 24 hours
Method: HepG2 cells plated at a density of 20,000 cells per well were treated by electroporation with various concentrations of modified oligonucleotide as specified in the tables below. […] APOE RNA levels were measured using the human primer probe set RTS3073 (described herein above). APOE RNA levels were normalized to human PPIA. Human PPIA was amplified using human primer probe set mk_cycloA_2nd (forward sequence […], designated herein as SEQ ID NO: 13; reverse sequence […], designated herein as SEQ ID NO: 14; probe sequence […], designated herein as SEQ ID NO: 15). Normalized results are presented in the table below as percent APOE RNA, relative to the amount of APOE RNA in untreated control cells (% UTC). The half maximal inhibitory concentration (IC50) of each modified oligonucleotide was calculated in GraphPad Prism 10 (GraphPad Software, San Diego, CA) and is also presented in the table below.

human APOE RNA [2] = test: Dose-dependent reduction of human APOE RNA in HepG2 cells, electroporation, 20,000 cells per well, average of GAPDH- and PPIA-normalized results (Example 4, Table 12); assay type: cell-based; settings: HepG2, 20,000 cells per well
How it was run: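 Modified oligonucleotides at various concentrations were electroporated into HepG2 cells. APOE RNA was quantified by RT-qPCR, normalized separately to GAPDH and PPIA, and the two averaged as % of untreated control; IC50 was calculated from the dose series.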

human APOE RNA [3] = test: Potency (dose response, ED50) in APOE C57BL/6NTac-Apoeem7250 knock-in mice, 4 weeks (Example 14); assay type: in vivo
How it was run: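 Knock-in mice (3–4 per group) received a single ICV bolus of oligonucleotide, with PBS as control. At four weeks, cortex and spinal cord RNA was analysed by RT-qPCR with a human primer probe set, normalized to mouse Ppia, and expressed as % PBS control. ED50 was calculated from the dose response.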

human APOE RNA [4] = test: Potency (dose response, ED50) in APOE C57BL/6NTac-Apoeem7250 knock-in mice, 8 weeks (Example 15); assay type: in vivo
How it was run: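 Human APOE knock-in C57BL/6NTac-Apoeem7250 mice, 3–4 per group, single ICV bolus of oligonucleotide; PBS as negative control. After 8 weeks, cortex and spinal cord human APOE RNA measured by RT-qPCR, normalised to mouse Ppia, as % of PBS control; ED50 calculated from dose response.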

human APOE RNA [5] = test: Duration of action study in APOE C57BL/6NTac-Apoeem7250 knock-in mice (Example 18); assay type: in vivo; settings: single ICV bolus 300 μg, APOE knock-in mice, normalized to mouse Ppia, relative to PBS
How it was run: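 Single 300 μg ICV bolus of modified oligonucleotide; PBS-bolus mice as controls. At various timepoints, cortex and spinal cord RNA quantified by RT-qPCR, human APOE normalized to mouse Ppia and expressed as % of PBS-treated control.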

[6] = cortex, single ICV bolus, GraphPad Prism 10

## Aes^mCeoTeoTesGesGksTdsGdzAdzAdzTds^mCdsTdsTdsTdsAdzTksTksAesAe (eA*e[5mC]eTeT*eG*kG*dT*dG[ms]dA[ms]dA[ms]dT*d[5mC]*dT*dT*dT*dA[ms]kT*kT*eA*eA) [Compound No. 1757576]
Human APOE RNA [1]; PPIA-normalized, 5 nM
  APOE RNA (% UTC) 5 nM: 78 % UTC
Human APOE RNA [1]; PPIA-normalized, 13 nM
  APOE RNA (% UTC) 13 nM: 74 % UTC
Human APOE RNA [1]; PPIA-normalized, 33 nM
  APOE RNA (% UTC) 33 nM: 70 % UTC
Human APOE RNA [1]; PPIA-normalized, 82 nM
  APOE RNA (% UTC) 82 nM: 56 % UTC
Human APOE RNA [1]; PPIA-normalized, 205 nM
  APOE RNA (% UTC) 205 nM: 41 % UTC
Human APOE RNA [1]; PPIA-normalized, 512 nM
  APOE RNA (% UTC) 512 nM: 25 % UTC
Human APOE RNA [1]; PPIA-normalized, 1,280 nM
  APOE RNA (% UTC) 1,280 nM: 12 % UTC
Human APOE RNA [1]; PPIA-normalized, 3,200 nM
  APOE RNA (% UTC) 3,200 nM: 6 % UTC
Human APOE RNA [1]; PPIA-normalized, 8,000 nM
  APOE RNA (% UTC) 8,000 nM: 3 % UTC
Human APOE RNA [1]; PPIA-normalized, 20,000 nM
  APOE RNA (% UTC) 20,000 nM: 7 % UTC
Human APOE RNA [1]; reduction of human APOE RNA, PPIA-normalized
  IC50: 90 nM
Human APOE RNA [2]; 5 nM
  APOE RNA (% UTC): 94 % UTC
Human APOE RNA [2]; 13 nM
  APOE RNA (% UTC): 88 % UTC
Human APOE RNA [2]; 33 nM
  APOE RNA (% UTC): 83 % UTC
Human APOE RNA [2]; 82 nM
  APOE RNA (% UTC): 77 % UTC
Human APOE RNA [2]; 205 nM
  APOE RNA (% UTC): 61 % UTC
Human APOE RNA [2]; 512 nM
  APOE RNA (% UTC): 40 % UTC
Human APOE RNA [2]; 1,280 nM
  APOE RNA (% UTC): 29 % UTC
Human APOE RNA [2]; 3,200 nM
  APOE RNA (% UTC): 22 % UTC
Human APOE RNA [2]; 8,000 nM
  APOE RNA (% UTC): 11 % UTC
Human APOE RNA [2]; 20,000 nM
  APOE RNA (% UTC): 6 % UTC
Human APOE RNA [2]; approximately 24 hours
  IC50: 370 nM
Human APOE RNA [3]; cortex, ICV dose 10 μg
  APOE RNA (% control) Cortex: 108 % control
Human APOE RNA [3]; cortex, ICV dose 30 μg
  APOE RNA (% control) Cortex: 121 % control
Human APOE RNA [3]; cortex, ICV dose 100 μg
  APOE RNA (% control) Cortex: 63 % control
Human APOE RNA [3]; cortex, ICV dose 300 μg
  APOE RNA (% control) Cortex: 37 % control
Human APOE RNA [3]; cortex, ICV dose 700 μg
  APOE RNA (% control) Cortex: 31 % control
Human APOE RNA [3]; [6]
  ED 50 (μg) Cortex: 235.5 µg
Human APOE RNA [3]; spinal cord, ICV dose 10 μg
  APOE RNA (% control) Spinal Cord: 58 % control
Human APOE RNA [3]; spinal cord, ICV dose 30 μg
  APOE RNA (% control) Spinal Cord: 55 % control
Human APOE RNA [3]; spinal cord, ICV dose 100 μg
  APOE RNA (% control) Spinal Cord: 23 % control
Human APOE RNA [3]; spinal cord, ICV dose 300 μg
  APOE RNA (% control) Spinal Cord: 20 % control
Human APOE RNA [3]; spinal cord, ICV dose 700 μg
  APOE RNA (% control) Spinal Cord: 18 % control
Human APOE RNA [3]; spinal cord, single ICV bolus, GraphPad Prism 10
  ED 50 (μg) Spinal Cord: 23.0 µg
Human APOE RNA [4]; cortex, ICV dose 10 μg
  APOE RNA (% control) Cortex: 93 % control
Human APOE RNA [4]; cortex, ICV dose 30 μg
  APOE RNA (% control) Cortex: 92 % control
Human APOE RNA [4]; cortex, ICV dose 100 μg
  APOE RNA (% control) Cortex: 52 % control
Human APOE RNA [4]; cortex, ICV dose 300 μg
  APOE RNA (% control) Cortex: 30 % control
Human APOE RNA [4]; cortex, ICV dose 700 μg
  APOE RNA (% control) Cortex: 18 % control
Human APOE RNA [4]; [6]
  ED 50 (μg) Cortex: 135.7 µg
Human APOE RNA [4]; ICV dose 10 μg
  APOE RNA (% control) Spinal Cord: 33 % control
Human APOE RNA [4]; ICV dose 30 μg
  APOE RNA (% control) Spinal Cord: 15 % control
Human APOE RNA [4]; ICV dose 100 μg
  APOE RNA (% control) Spinal Cord: 13 % control
Human APOE RNA [4]; ICV dose 300 μg
  APOE RNA (% control) Spinal Cord: 9 % control
Human APOE RNA [4]; ICV dose 700 μg
  APOE RNA (% control) Spinal Cord: 9 % control
Human APOE RNA [5]; 196 days post-dose
  APOE RNA (% control) Cortex: 71 % control
  APOE RNA (% control) Spinal Cord: 28 % control
Human APOE RNA [5]; 224 days post-dose
  APOE RNA (% control) Cortex: 92‡ % control
  APOE RNA (% control) Spinal Cord: 33‡ % control
Human APOE RNA [5]; 285 days post-dose
  APOE RNA (% control) Cortex: 87 % control
  APOE RNA (% control) Spinal Cord: 86 % control
